For data set [1], the system named is gastric acid secretion. The data set can be described thus: Gastric acid secretion in anaesthetized rats after I.V., intra-ileal or jejunal administration of gastrin peptides (back titration of HCl). To be noted: for absorption across the ileal wall into the circulation: cholate conjugated form introduced into the ileum; for increase in gastric acid secretion with respect to baseline: P=0.001; for effect on gastric acid secretion: unconjugated gastrin without prior injection of the respective conjugate; for stimulation of the peak gastric acid secretion: 5 rats.
Method: (§1) Experiments were carried out on male Wistar rats of 250–350 g, which had been starved overnight, and which were anaesthetized with an I.P. injection of Sagatal (pentobarbitone sodium, obtainable from Rhône Mérieux, Harlow Essex, UK) of dosage appropriate to the body weight. The criterion for anaesthesia was abolition of the hind limb flexor withdrawal reflex. The following surgical procedures were then carried out: tracheostomy to allow artificial ventilation if required, cannulation of the carotid artery to monitor blood pressure, cannulation of the external jugular vein to allow for the slow bolus infusion of drugs, intubation of the stomach at the pyloro-duodenal junction after ligation of the oesophagus to measure gastric acid secretion, cannulation of the terminal ileum and/or of the proximal jejunum distal to the ligament of Treitz for infusion of peptide hormones.
(§2) Gastric acid secretion was measured by the following method. 1.0 ml of glycine/mannitol buffer (1 part glycine (0.3M) and 4 parts D-mannitol (0.3M) adjusted to pH 6.5) was instilled into the stomach and left for 15 min when withdrawal was made. The HCl secreted was determined by back titration with 10 mM NaOH to pH 6.5.
(§3) The data are expressed as the mean±S.D. μmol HCl secreted by the stomach over the stated time period in response to the experimental procedure.

In data set [2] the test system is gastric acid secretion. To be noted: rat, in vivo.
Method: as §1, §2, §3

Non-standard residues stand in square brackets, D forms with d. Residues, ends and D or L forms follow the SMILES beside them. *: point of attachment. Cholyl = C[C@H](CCC(=O)*)[C@H]1CC[C@H]2[C@@H]3[C@H](O)C[C@@H]4C[C@H](O)CC[C@]4(C)[C@H]3C[C@H](O)[C@]12C; pGlu = O=C1CC[C@@H](C(=O)O)N1

Turning to `CSCC[C@H](NC(=O)[C@H](Cc1c[nH]c2ccccc12)NC(=O)CNC(=O)[C@H](Cc1ccc(O)cc1)NC(=O)[C@H](C)NC(=O)[C@H](CCC(=O)O)NC(=O)[C@H](CCC(=O)O)NC(=O)[C@H](CCC(=O)O)NC(=O)CC[C@@H](C)[C@H]1CC[C@H]2[C@@H]3[C@H](O)C[C@@H]4C[C@H](O)CC[C@]4(C)[C@H]3C[C@H](O)[C@]12C)C(=O)N[C@@H](CC(=O)O)C(=O)N[C@@H](Cc1ccccc1)C(N)=O` [G10-CA, cholate-Glu-Glu-Glu-Ala-Tyr-Gly-Trp-Met-Asp-Phe-amide] (Cholyl-EEEAYGWMDF-NH2), the “absorption across the ileal wall into the circulation” value in the data set with gastric acid secretion [1] was “absorption of the conjugated gastrin across the ileal wall into the circulation occurred”.

In the case of `CC[C@H](C)[C@H](NC(=O)[C@H](Cc1ccccc1)NC(=O)[C@H](Cc1c[nH]cn1)NC(=O)[C@H](CCC(N)=O)NC(=O)[C@@H]1CCCN1C(=O)CNC(=O)[C@H](CCC(N)=O)NC(=O)[C@@H]1CCCN1C(=O)CNC(=O)[C@H](CC(C)C)NC(=O)[C@H](CCC(=O)O)NC(=O)CC[C@@H](C)[C@H]1CC[C@H]2[C@@H]3[C@H](O)C[C@@H]4C[C@H](O)CC[C@]4(C)[C@H]3C[C@H](O)[C@]12C)C(=O)N[C@@H](C)C(=O)N[C@@H](CC(=O)O)C(=O)N[C@@H](CC(C)C)C(=O)N[C@@H](CO)C(=O)N[C@@H](CCCCN)C(=O)N[C@@H](CCCCN)C(=O)N[C@@H](CCC(N)=O)C(=O)N[C@@H](CCCNC(=N)N)C(=O)N1CCC[C@H]1C(=O)N1CCC[C@H]1C(=O)N[C@@H](CCSC)C(=O)N[C@@H](CCC(=O)O)C(=O)N[C@@H](CCC(=O)O)C(=O)N[C@@H](CCC(=O)O)C(=O)N[C@@H](CCC(=O)O)C(=O)N[C@@H](CCC(=O)O)C(=O)N[C@@H](C)C(=O)N[C@@H](Cc1ccc(O)cc1)C(=O)NCC(=O)N[C@@H](Cc1c[nH]c2ccccc12)C(=O)N[C@@H](CCSC)C(=O)N[C@@H](CC(=O)O)C(=O)N[C@@H](Cc1ccccc1)C(N)=O` [G34-CA] (Cholyl-ELGPQGPQHFIADLSKKQRPPMEEEEEAYGWMDF-NH2), the “absorption across the ileal wall into the circulation” value with gastric acid secretion [1] was “absorption of the conjugated gastrin across the ileal wall into the circulation occurred”.

Take `CSCC[C@H](NC(=O)[C@@H](N)Cc1c[nH]c2ccccc12)C(=O)N[C@@H](CC(=O)O)C(=O)N[C@@H](Cc1ccccc1)C(N)=O` [G4, Trp-Met-Asp-Phe amide]: in the data set with gastric acid secretion [2], the “absorption from the upper jejunum” value was “lack of absorption” and the “absorption of unconjugated gastrin” value is reported as “absorption of the unconjugated gastrin occurred”. The “increase in gastric acid secretion with respect to baseline” value with gastric acid secretion [1] (first intravenous injection (start of experiment)) is reported as 0.42±0.10 μmol 15 min^1. This compound registered a fall in the mean gastric acid level in the data set on gastric acid secretion [1] (ileal infusion, 2500 μg kg^−1 in 1.0 ml isotonic saline, 6 experiments, P=0.043) of 0.23 ± 0.21 µmol/h. Moreover, the “increase in gastric acid secretion with respect to baseline” value in the data set on gastric acid secretion [1] (second intravenous injection (end of experiment)) was found to be 0.50±0.14 μmol 15 min^1. The “effect on gastric acid secretion” value in the data set with gastric acid secretion [1] was “without effect on gastric acid secretion”.

As for `CSCC[C@H](NC(=O)[C@H](Cc1c[nH]c2ccccc12)NC(=O)CC[C@@H](C)[C@H]1CC[C@H]2[C@@H]3[C@H](O)C[C@@H]4C[C@H](O)CC[C@]4(C)[C@H]3C[C@H](O)[C@]12C)C(=O)N[C@@H](CC(=O)O)C(=O)N[C@@H](Cc1ccccc1)C(N)=O` [G4-CA, cholate-Trp-Met-Asp-Phe amide], in the data set with gastric acid secretion [1], the “absorption across the ileal wall into the circulation” value was “absorption of the conjugated gastrin across the ileal wall into the circulation occurred”.

“H-EEEAYGWMDF-NH2 [G10, H-Glu-Glu-Glu-Ala-Tyr-GlyTrp-Met-Asp-Phe-amide]”: the “absorption of unconjugated gastrin” value in the data set with gastric acid secretion [2] is on record as “absorption of the unconjugated gastrin occurred”. Further, the “stimulation of the peak gastric acid secretion” value in the data set with gastric acid secretion [1] (I.V. 36 μg kg^−1, initial injection, P=0.036) amounted to 1.28 ± 0.93 µmol; in the data set with gastric acid secretion [1] (I.V. 36 μg kg^−1, second injection at the end of the experiment, P=0.048) it was 1.45 ± 1.15 µmol. Besides, in the data set with gastric acid secretion [1] (infusion into the ileum, 6600 μg kg^−1 in 1.0 ml, not significant (P=0.23)), the “change in gastric acid secretion” value is reported as −1.22±1.93 μmol 180 min^−1. Further, in the data set on gastric acid secretion [1], the “effect on gastric acid secretion” value is “without effect on gastric acid secretion”.

Turning to “pGlu-Leu-Gly-Pro-Gln-Gly-Pro-Gln-His-Phe-Ile-Ala-Asp-Leu-Ser-Lys-Lys-Gln-Arg-Pro-Pro-Met-Glu-Glu-Glu-Glu-Glu-Ala-Tyr-GlyTrp-Met-Asp-Phe-NH2 ([pGlu]LGPQGPQHFIADLSKKQRPPMEEEEEAYGWMDF-NH2; ends and bridges not checked) [G34]”, in the data set with gastric acid secretion [2], the “absorption of unconjugated gastrin” value was “absorption of the unconjugated gastrin occurred”. Besides, the “stimulation of the peak gastric acid secretion” value is 0.23 ± 0.051 µmol in the data set with gastric acid secretion [1] (I.V. 10 ng kg^−1, second injection at the end of the experiment, P=0.0005) and 0.14 ± 0.034 µmol in the data set with gastric acid secretion [1] (I.V. near threshold dose 10 ng kg^−1, initial injection, P=0.0008). In addition, in the data set on gastric acid secretion [1] (infusion into the ileum, 10.5 mg kg^−1 in 1.0 ml, not significant (P=0.16)), the “change in mean gastric acid secretion” value is 0.202±0.262 μmol 180 min^−1. For the same compound, the “mean increase in gastric acid secretion” value with gastric acid secretion [1] (intraileal infusion of G34 subsequent to intraileal infusion of G34-CA, 4 rats, P=0.004) was determined as 5.68±1.38 μmol 180 min^−1. Moreover, in the data set on gastric acid secretion [1], the “effect on gastric acid secretion” value is on record as “without effect on gastric acid secretion”.

Source of the values: US7153930B1, “Peptide transport” (priority 1999, dated 2006).
